# From PubChem BioAssay (NCI)
#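 1) Cells in 96-well plates. 2) Compound, 48 h, 5 concentrations. 3) Linear interpolation between surrounding doses. 4) Unreached endpoint = highest concentration. At the TGI there is no net growth.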
# System: M14 melanoma
# Assay: NCI-60 cell line screen, 48 h
row,SMILES,TGI [µM]
1,c1ccc(-c2cnc(-c3ccc(-c4ncc(-c5ccccc5)o4)cc3)o2)cc1,> 100
2,O=C(OCC(OC(=O)c1ccccc1)C(OC(=O)c1ccccc1)C(OC(=O)c1ccccc1)c1cnn(-c2ccccc2)n1)c1ccccc1 (configuration not stated),> 100
3,COC(=O)C1=C(O)C(C(=O)OC)[C@@]2(O)[C@@H](C(=O)OC)[C@H](C)[C@@H](C)[C@@H]1[C@@H]2C(=O)OC (some centres not stated),> 100

# System: HCT-116 colon
# Assay: NCI-60 cell line screen, 48 h
row,SMILES,TGI [µM]
1,CCOC(=O)C1CN(C2CC2)CCC1=O (configuration not stated),> 100
2,CCOC(=O)C(C)c1nc2c(Cl)c3ncccc3cc2[nH]c1=O (configuration not stated),> 100
3,CC(C)C1=C2CCC3(C)C(CCC4C5C6OCC5(CCC6(C)C)CCC43C)C2(C)CC1 (configuration not stated),34.4
4,c1ccc(-c2cnc(-c3ccc(-c4ncc(-c5ccccc5)o4)cc3)o2)cc1,> 100
5,O=C(OCC(OC(=O)c1ccccc1)C(OC(=O)c1ccccc1)C(OC(=O)c1ccccc1)c1cnn(-c2ccccc2)n1)c1ccccc1 (configuration not stated),> 100
6,COC(=O)C1=C(O)C(C(=O)OC)[C@@]2(O)[C@@H](C(=O)OC)[C@H](C)[C@@H](C)[C@@H]1[C@@H]2C(=O)OC (some centres not stated),> 100

# System: 786-0 renal
# Assay: NCI-60 cell line screen, 48 h
row,SMILES,TGI [µM]
1,CCOC(=O)C1CN(C2CC2)CCC1=O (configuration not stated),> 100
2,Cc1cc2nc(-c3cc(C(C)(C)C)c(O)c(C(C)(C)C)c3)[nH]c2cc1C,2.73
3,CCOC(=O)C(C)c1nc2c(Cl)c3ncccc3cc2[nH]c1=O (configuration not stated),> 100
4,CC(C)C1=C2CCC3(C)C(CCC4C5C6OCC5(CCC6(C)C)CCC43C)C2(C)CC1 (configuration not stated),33.7
5,c1ccc(-c2cnc(-c3ccc(-c4ncc(-c5ccccc5)o4)cc3)o2)cc1,> 100
6,O=C(OCC(OC(=O)c1ccccc1)C(OC(=O)c1ccccc1)C(OC(=O)c1ccccc1)c1cnn(-c2ccccc2)n1)c1ccccc1 (configuration not stated),> 100

# System: MDA-N
# Assay: NCI-60 cell line screen, 48 h
row,SMILES,TGI [µM]
1,CCOC(=O)C1CN(C2CC2)CCC1=O (configuration not stated),> 100
2,Cc1cc2nc(-c3cc(C(C)(C)C)c(O)c(C(C)(C)C)c3)[nH]c2cc1C,> 44.5
3,CCOC(=O)C(C)c1nc2c(Cl)c3ncccc3cc2[nH]c1=O (configuration not stated),> 100
4,CC(C)C1=C2CCC3(C)C(CCC4C5C6OCC5(CCC6(C)C)CCC43C)C2(C)CC1 (configuration not stated),30.2
5,c1ccc(-c2cnc(-c3ccc(-c4ncc(-c5ccccc5)o4)cc3)o2)cc1,> 100
6,O=C(OCC(OC(=O)c1ccccc1)C(OC(=O)c1ccccc1)C(OC(=O)c1ccccc1)c1cnn(-c2ccccc2)n1)c1ccccc1 (configuration not stated),> 100
7,COC(=O)C1=C(O)C(C(=O)OC)[C@@]2(O)[C@@H](C(=O)OC)[C@H](C)[C@@H](C)[C@@H]1[C@@H]2C(=O)OC (some centres not stated),50.1

# System: A498 renal
# Assay: NCI-60 cell line screen, 48 h
row,SMILES,TGI [µM]
1,Cc1cc2nc(-c3cc(C(C)(C)C)c(O)c(C(C)(C)C)c3)[nH]c2cc1C,> 100
2,CCOC(=O)C(C)c1nc2c(Cl)c3ncccc3cc2[nH]c1=O (configuration not stated),> 100
3,CC(C)C1=C2CCC3(C)C(CCC4C5C6OCC5(CCC6(C)C)CCC43C)C2(C)CC1 (configuration not stated),36.7
4,c1ccc(-c2cnc(-c3ccc(-c4ncc(-c5ccccc5)o4)cc3)o2)cc1,> 100
5,O=C(OCC(OC(=O)c1ccccc1)C(OC(=O)c1ccccc1)C(OC(=O)c1ccccc1)c1cnn(-c2ccccc2)n1)c1ccccc1 (configuration not stated),> 100
6,COC(=O)C1=C(O)C(C(=O)OC)[C@@]2(O)[C@@H](C(=O)OC)[C@H](C)[C@@H](C)[C@@H]1[C@@H]2C(=O)OC (some centres not stated),> 100

# System: HOP-92 NSCLC
# Assay: NCI-60 cell line screen, 48 h
row,SMILES,TGI [µM]
1,Cc1cc2nc(-c3cc(C(C)(C)C)c(O)c(C(C)(C)C)c3)[nH]c2cc1C,> 100
2,CCOC(=O)C(C)c1nc2c(Cl)c3ncccc3cc2[nH]c1=O (configuration not stated),> 100
3,CC(C)C1=C2CCC3(C)C(CCC4C5C6OCC5(CCC6(C)C)CCC43C)C2(C)CC1 (configuration not stated),40.8
4,c1ccc(-c2cnc(-c3ccc(-c4ncc(-c5ccccc5)o4)cc3)o2)cc1,> 100
5,O=C(OCC(OC(=O)c1ccccc1)C(OC(=O)c1ccccc1)C(OC(=O)c1ccccc1)c1cnn(-c2ccccc2)n1)c1ccccc1 (configuration not stated),> 100

# System: MDA-MB-435
# Assay: NCI-60 cell line screen, 48 h
row,SMILES,TGI [µM]
1,CCOC(=O)C1CN(C2CC2)CCC1=O (configuration not stated),> 100
2,Cc1cc2nc(-c3cc(C(C)(C)C)c(O)c(C(C)(C)C)c3)[nH]c2cc1C,> 100
3,CCOC(=O)C(C)c1nc2c(Cl)c3ncccc3cc2[nH]c1=O (configuration not stated),> 100
4,CC(C)C1=C2CCC3(C)C(CCC4C5C6OCC5(CCC6(C)C)CCC43C)C2(C)CC1 (configuration not stated),36.6
5,c1ccc(-c2cnc(-c3ccc(-c4ncc(-c5ccccc5)o4)cc3)o2)cc1,> 100
6,O=C(OCC(OC(=O)c1ccccc1)C(OC(=O)c1ccccc1)C(OC(=O)c1ccccc1)c1cnn(-c2ccccc2)n1)c1ccccc1 (configuration not stated),> 100
7,COC(=O)C1=C(O)C(C(=O)OC)[C@@]2(O)[C@@H](C(=O)OC)[C@H](C)[C@@H](C)[C@@H]1[C@@H]2C(=O)OC (some centres not stated),39.2

# System: ACHN renal
# Assay: NCI-60 cell line screen, 48 h
row,SMILES,TGI [µM]
1,CCOC(=O)C1CN(C2CC2)CCC1=O (configuration not stated),> 100
2,Cc1cc2nc(-c3cc(C(C)(C)C)c(O)c(C(C)(C)C)c3)[nH]c2cc1C,> 24.6
3,CCOC(=O)C(C)c1nc2c(Cl)c3ncccc3cc2[nH]c1=O (configuration not stated),> 100
4,CC(C)C1=C2CCC3(C)C(CCC4C5C6OCC5(CCC6(C)C)CCC43C)C2(C)CC1 (configuration not stated),35.9
5,c1ccc(-c2cnc(-c3ccc(-c4ncc(-c5ccccc5)o4)cc3)o2)cc1,> 100
6,O=C(OCC(OC(=O)c1ccccc1)C(OC(=O)c1ccccc1)C(OC(=O)c1ccccc1)c1cnn(-c2ccccc2)n1)c1ccccc1 (configuration not stated),> 100
7,COC(=O)C1=C(O)C(C(=O)OC)[C@@]2(O)[C@@H](C(=O)OC)[C@H](C)[C@@H](C)[C@@H]1[C@@H]2C(=O)OC (some centres not stated),> 100
